Data from publication PMC10731637, “Design, Synthesis, and Biological Studies of Flavone-Based Esters and Acids as Potential P450 2A6 Inhibitors” (Chemical Research in Toxicology, 2023).

Biological target: T1, Cytochrome P450 2A6 (CYP2A6) (Homo sapiens, UniProt P11509)
T1 sequence (P11509 1-494): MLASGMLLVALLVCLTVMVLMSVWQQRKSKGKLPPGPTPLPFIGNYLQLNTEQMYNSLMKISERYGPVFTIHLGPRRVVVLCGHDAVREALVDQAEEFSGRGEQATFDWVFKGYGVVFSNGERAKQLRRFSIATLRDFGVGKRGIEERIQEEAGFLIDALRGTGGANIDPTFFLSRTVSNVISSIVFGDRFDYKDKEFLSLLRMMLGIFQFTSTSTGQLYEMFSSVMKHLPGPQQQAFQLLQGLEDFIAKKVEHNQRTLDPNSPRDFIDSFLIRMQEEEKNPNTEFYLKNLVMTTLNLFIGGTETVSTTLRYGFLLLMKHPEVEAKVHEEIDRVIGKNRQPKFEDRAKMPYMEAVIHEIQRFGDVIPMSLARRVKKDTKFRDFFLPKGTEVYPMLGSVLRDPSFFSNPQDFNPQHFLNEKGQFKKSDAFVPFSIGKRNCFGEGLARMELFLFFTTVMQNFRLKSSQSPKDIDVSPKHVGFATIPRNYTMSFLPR
Test: Vivid CYP450 fluorescence inhibition assay with CYP2A6 baculosomes, 10-point dose-response
Assay type: biochemical

| SMILES | IC50 [µM] |
| --- | --- |
| CCOC(=O)COc1ccccc1-c1cc(=O)c2ccccc2o1 [compound 1, Ethyl 2-(2-(4-Oxo-4H-chromen-2-yl)phenoxy)acetate] | 37.9 |
| CCOC(=O)COc1c(-c2ccccc2)oc2ccccc2c1=O [compound 2, Ethyl 2-((4-Oxo-2-phenyl-4H-chromen-3-yl)oxy)acetate] | 4.61 |
| O=C(O)COc1ccccc1-c1cc(=O)c2ccccc2o1 [compound 6, 2-(2-(4-Oxo-4H-chromen-2-yl)phenoxy)acetic Acid] | 1.57 |
